Type in all cases: cell-based, human
One assay relates to MEK. Description: Immunoblot of Erk1/2 phosphorylation in melanoma cell lines treated with AZD-6244. Conditions: 1 hour treatment. On the procedure: (§1) FIGS. 5A-5E: Melanoma lines expressing GRM3 mutants show increased sensitivity to inhibition of MEK by AZD-6244. (FIG. 5A) Immunoblot analysis of representative melanoma cell lines harboring either WT or mutant GRM3. The cells were treated with the indicated concentration of AZD-6244 and analyzed for Erk1/2 expression and phosphorylation. Cells were treated for 1 hour with AZD-6244 or vehicle alone as control. Lysates were subjected to protein blot analysis with α-Eek, anti-P-Erk1/2 (α-P-Erk1/2) and anti-GAPDH as a loading control. (FIG. 5B) Representative dose-response curves showing efficacy of AZD-6244 against GRM3 mutant lines compared to WT GRM3 lines. Relative cell number after cells were treated for 72 hours with increasing concentrations (0.01-30 μM) of AZD-6244, as estimated by CellTiterGlo and plotted as percent survival, as compared to vehicle-treated control, versus log AZD-6244 concentration in nM (where 1 is 10 nM AZD-6244). […] (FIG. 5D) fluorescence activated cells sorting (FACS) analysis of WT (2T) and A190V mutant (17T) cells showing cell cycle distribution (propidium iodide (PI) staining, x axis) versus cell counts (y axis). […] (FIG. 5D) Quantification of FACS-sorted AZD-6244-treated cells. The percentage of apoptotic cells was determined based on the sub-G1 population for vehicle-treated cells or 1 AZD-6244 treated cells. […]
Background: In western blotting, separated proteins are transferred to a membrane and probed.

In assay [1] the test system is 63T-Glu573Lys melanoma cells. Description: Growth inhibition by AZD-6244 of mutant GRM3 cells (63T) transduced with empty vector or WT GRM3. Conditions: 63T cells, 72 hours treatment, CellTiterGlo. On the procedure: FIGS. 12A-12C: Expression of WT GRM3 in a mutant GRM3 background desensitizes cells to AZD-6244 inhibition. (FIG. 12A) Cell lysates from 63T cells transduced with empty vector or WT GRM3 were analyzed by western blotting using anti-FLAG-HRP and anti-GAPDH as a loading control. (FIG. 12B) Melanoma cells harboring WT (13T) or mutant GRM3 (63T-Glu573Lys) transduced with empty vector or WT GRM3 were tested for growth inhibition by AZD-6244. Cells were plated and treated with AZD-6244 concentrations ranging from 2 nM to 30 μM for 72 hours prior to analysis using CellTiterGlo and GraphPad Prism5. EC50 dose-response curves were generated from GraphPad using four-parameter nonlinear regression. (FIG. 12C) EC50 values for inhibition of cell growth by 72 h treatment with AZD-6244 of the indicated melanoma cell lines.
To test AZD-6244 inhibition of cells that had been stimulated with DCG-IV to activate MEK1/2, melanoma cells were plated in 96-well plates at 2,000 cells per well in either RPMI-1640/0.5% FBS/2.5 μM DCG-IV or RPMI-1640/10% FBS and incubated for 24 hours prior to addition of inhibitor at concentrations from 2 nM to 30 μM. Once the inhibitor was added, cells were incubated for 72 hours at 37° C. Plates were then analyzed as described above. […]

In another assay the test system is PARP cleavage. Nature of the assay: Immunoblot of PARP cleavage after AZD-6244 treatment. The following applies: lysates from FACS analyzed cells.
Assay [2] has as its system melanoma cells harboring WT or mutant GRM3. Description: Flow cytometry (FACS) cell cycle analysis, sub-G1 population. The following applies: AZD-6244 2 μM for 72 hours, PI staining. On the procedure:
as §1, with “lines.” for “lines. Relative cell number after cells were treated for 72 hours with increasing concentrations (0.01-30 μM) of AZD-6244, as estimated by CellTiterGlo and plotted as percent survival, as compared to vehicle-treated control, versus log AZD-6244 concentration in nM (where 1 is 10 nM AZD-6244).”
Melanoma cells were seeded into T25 flasks at a density of 3×10^5 cells per flask in normal complete T2 medium and incubated at 37° C. for 24 hours prior to addition of AZD-6244 (cat #S1008) (Selleck Chemicals LLC-Houston, Tex.). […] Cellular DNA content was analyzed on Becton Dickinson FACSCalibur™ using CellQuest software. […]
In general terms: Flow cytometry measures light scatter and fluorescence of single cells or particles in a stream.

Assay [3] has as its system Mel-STR pooled GRM3 clones. Description: Migration assay (Boyden chamber), Mel-STR pooled GRM3 clones with or without DCG-IV. Conditions: 2.5 μM DCG-IV, serum-free medium in top chamber. On the procedure:
(§2) FIGS. 3A-3C: GRM3 mutations increase cell migration in vitro and in vivo. (FIG. 3A) A375 pooled GRM3 clones in the absence of stimulus (i) migrate as well as those stimulated with the group II metabotropic agonist DCG-IV (ii). A375 clones were seeded in Boyden chambers in either the absence of stimulus (i) or in the presence of 2.5 μM DCG-IV (ii) and assessed for their ability to migrate 16 hours later. (FIG. 3B) Mel-STR pooled GRM3 clones were analyzed for migration as described in (FIG. 3A). Stained wells were analyzed using a Zeiss microscope 10× lens and counted with NIH ImageJ software. (FIG. 3C) non-obese diabetic (NOD)/severe combined immunodeficiency (SCID) mice were intravenously injected with A375 pooled GRM3 clones expressing WT, G561E, S610L, E767K, or E870K GRM3, or vector alone, and examined after nine weeks. (i) Graph indicates the number of mice that had lung macrometastases. (ii) Representative images of lungs from mice injected with vector, WT or mutant expressing A375 clones.
(§3) Mel-STR pooled clones were seeded into pre-conditioned migration wells (8.0 μm—BD Biocoat, BD Biosciences) at 30,000 cells per well in serum-free medium or serum-free medium plus 2.5 μM DCG-IV in the top chamber. […] Inserts were analyzed and the number of cells migrated per field view was quantitated using ImageJ (NIH software). […]

Another assay has as its system A375 pooled GRM3 clones. Nature of the assay: Migration assay (Boyden chamber), A375 pooled GRM3 clones with or without DCG-IV. Conditions: 2.5 μM DCG-IV, serum-free medium in top chamber. On the procedure: as §2, §3

With `Cn1cnc2c(F)c(Nc3ccc(Br)cc3Cl)c(C(=O)NOCCO)cc21` [AZD-6244], in the assay on MEK, the “relative degree of MEK inhibition, mutant versus WT GRM3 cells” value was “greater for the mutant cells than for the WT cells”. Besides, the “inhibition of MEK as measured by phosphorylated ERK (p-ERK) levels” value with MEK (mutant as well as WT GRM3 melanoma cells) was “inhibited MEK”. For the same molecule, in assay [1], the “resistance of cells overexpressing WT GRM3 in a mutant GRM3 background compared to control infected cells (cell proliferation)” value is recorded as “four-fold increased resistance”. Also, the “cleaved PARP in mutant GRM3 lines compared to WT cells” value in the assay with PARP cleavage is recorded as “increased levels of cleaved PARP”. Moreover, the “subG1 population (apoptotic cells) in mutant GRM3 cells compared to WT cells” value in assay [2] is given as “significant increase”.

For the molecule `N[C@H](C(=O)O)C1[C@@H](C(=O)O)[C@@H]1C(=O)O` (stereo partly shown) [DCG-IV], the “migration of vector and WT GRM3 expressing cells upon stimulation” value (in assay [3]; in the assay on A375 pooled GRM3 clones) was “migrated to a similar extent as mutant GRM3 expressing cells in the absence of stimuli” in each case.

The record behind these values is patent US8795964B2, “GRM3 mutations and use thereof for the diagnosis and treatment of melanoma” (The United States of America, as represented by the …, priority 2010, dated 2014).
